System: Fusarium culmorum
Assay: Activity against root rot caused by Fusarium culmorum (Fusacu), microtiter test
Format: cell-based
Conditions: 31 ppm; Fusarium culmorum spore suspension; 18° C.; 405 nm, 7 days after inoculation

`CC(C)CC#Cc1ccc(C(O)(Cn2cncn2)C(C)(C)C)cc1` (stereo not shown) [I.C-2] was tested, and the “growth (relative growth of the pathogen vs active compound-free control = 100%)” value was 0%.

From patent US10112913B2, “Substituted [1,2,4]triazole and imidazole compounds as fungicides” (BASF SE, priority 2014, dated 2018)
